The values below come from article PMC12299847, “Macroalgae-Inspired Brominated Chalcones as Cosmetic Ingredients with the Potential to Target Skin Inflammaging” (Marine Drugs, 2025).

In one data set the test system is RAW 264.7 macrophages. The data set is described as follows: Resazurin cell viability assay in RAW 264.7 macrophages. It counts as cell-based, murine. To be noted: RAW 264.7, 24 h. On the procedure: (§1) To evaluate the effects of chalcones 1–7 on cell viability after 24 h, a resazurin assay was performed using two cell lines: human HaCaT keratinocytes (HaCaT, CLS 300493), representing the epidermal layer, and murine RAW 264.7 macrophages (RAW 264.7, ATCC TIB-71), which model immune cells involved in dermal inflammatory responses. For the keratinocyte cell line, all seven brominated and non-brominated chalcones were tested across a concentration range from 2.5 μM to 125 μM (Figure 2).
To evaluate the cytotoxic effects of brominated and non-brominated chalcones 1–7 on macrophages, different concentration ranges were applied based on the response profiles previously observed for keratinocytes (Figure 3). […] For this set of chalcones, a similar tendency was observed: a lower cytotoxic characteristic of chalcone 4, which contained bromine atoms in both aromatic rings, compared to chalcones 5 (brominated in only the aromatic A ring) and 6 (non-brominated).
(§2) Human keratinocytes (HaCaT, CLS 300493, Eppelheim, Germany) were cultured in DMEM supplemented with heat-inactivated FBS, and a penicillin and streptomycin antibiotic solution. The cell culture of keratinocytes was washed with 6 mL of phosphate buffer solution with 0.05% EDTA (Sigma-Aldrich, St. Louis, MO, USA) and detached using 3 mL of 0.05% trypsin + 0.02% EDTA in PBS solution when the cells reached 70–80% confluence in cell culture flasks. DMEM was also used to cultivate the mouse macrophage cell line (RAW 264.7, ATCC TIB-71, Manassas, VA, USA) together with 10% (v/v) non-inactivated FBS, 1.5 g/L sodium bicarbonate, and 100 U/mL penicillin and 100 μg/mL streptomycin stock (antibiotic solution). The macrophage culture was mechanically detached using a cell scraper, and the final amount of DMEM media with the cells was sub-cultured in a 1:10 ratio to the cellular suspension.
The resazurin reduction assay was employed to evaluate the metabolic activity of human epidermal keratinocyte (HaCaT) and murine macrophage (RAW264.7) cell lines, as outlined in a previous study. In brief, HaCaT cells (1.0 × 10^5 cells/mL) and RAW264.7 cells (5.0 × 10^4 cells/mL) were seeded in 96-well plates (200 μL/well) and incubated overnight at 37 °C to allow for cell attachment. Following this, the cells were treated with different concentrations of the test compounds and kept at 37 °C for 24 h. After 20 h, resazurin (500 μM in sterile phosphate buffer solution, pH 7.4) was added to each well to achieve a final concentration of 50 μM, followed by an additional incubation of 4 h. Absorbance was then measured at wavelengths of 570 and 620 nm using a SpectraMax Plus 384 absorbance microplate spectrophotometer (Molecular Devices, San Jose, CA, USA). Each experiment was conducted in triplicate, with a minimum of three independent assays. […]
For orientation: Resazurin is reduced to fluorescent resorufin, in cell work by metabolically active cells.

Data set [1] relates to NO production in LPS-stimulated RAW 264.7 macrophages. The data set is described as follows: NO production (Griess assay) in LPS-stimulated macrophages. It counts as cell-based, murine. To be noted: Mus musculus, RAW264.7, 24 h, RAW 264.7, LPS 100 ng/mL, Griess. On the procedure: The anti-inflammatory potential of chalcones 1–7 was evaluated in macrophages cultured in the presence or absence (control) of LPS, as depicted in Figure 4. Under basal conditions (unstimulated, control), macrophages produce low levels of nitrites (≈12%). […] Each chalcone was tested at concentrations previously established as non-cytotoxic in macrophages, trying to ensure that observed changes in NO levels were not due to reduced cell viability.
The production of NO was evaluated by measuring nitrite accumulation in culture supernatants using the previously described Griess assay. Cells were seeded at a concentration of 5.0 × 10^4 cells/mL in a 96-well plate (200 μL/well) and allowed to stabilize overnight at 37 °C. Afterwards, the cells were treated with different concentrations of compound solutions and pre-incubated for 1 h at 37 °C. Subsequently, an LPS in PBS solution was added to each well, achieving a final concentration of 100 ng/mL, and the plate was left to incubate for 24 h. An amount of 150 μL of the cell culture supernatant was then transferred to a fresh 96-well plate, and an equal amount of Griess reagent [comprising a 1:1 mixture of 1% (w/v) sulphanilamide in 5% (v/v) phosphoric acid and 0.1% (w/v) naphthylethylenediaminedihydrochloride] was added. Following a 30 min incubation at room temperature in the dark, the absorbance was recorded at 550 nm using a Biotek Synergy HT plate reader (Biotek, CA, USA). The nitrite concentration in the supernatants was determined by comparing the absorbance of each sample to a sodium nitrite standard curve. The results, obtained from at least three independent experiments performed in duplicate, were expressed as a percentage of NO production by cells versus chemical concentration, relative to LPS condition (100%).
Figure 4 NO production by macrophages treated with LPS (100 ng/mL) or not (control) in the presence of chalcones 1–7. Results are expressed as a percentage of NO production by cells treated with LPS (100 ng/mL). Each value represents the mean ± SEM of four independent experiments in duplicate. Statistical analysis: one ANOVA with Dunnett’s multiple comparisons test, where p< 0.05 was considered significant. *** p < 0.005, relative to the control, and ^# p < 0.05, ^## p < 0.01, ^### p < 0.0005, and ^#### p < 0.0001, relative to LPS condition.
On the technique in general: The Griess reaction detects nitrite, a stable product of nitric oxide.

The next data set relates to HaCaT keratinocytes. The data set is described as follows: Resazurin cell viability assay in HaCaT keratinocytes. It counts as cell-based, human. The conditions noted are these: HaCaT, 24 h; for cytotoxicity / impact on keratinocyte viability: at 2.5 μM and 7.5 μM. On the procedure:
as §1, §2
(§3) The resazurin reduction assay was employed to evaluate the metabolic activity of human epidermal keratinocyte (HaCaT) and murine macrophage (RAW264.7) cell lines, as outlined in a previous study. In brief, HaCaT cells (1.0 × 10^5 cells/mL) and RAW264.7 cells (5.0 × 10^4 cells/mL) were seeded in 96-well plates (200 μL/well) and incubated overnight at 37 °C to allow for cell attachment. Following this, the cells were treated with different concentrations of the test compounds and kept at 37 °C for 24 h. After 20 h, resazurin (500 μM in sterile phosphate buffer solution, pH 7.4) was added to each well to achieve a final concentration of 50 μM, followed by an additional incubation of 4 h. Absorbance was then measured at wavelengths of 570 and 620 nm using a SpectraMax Plus 384 absorbance microplate spectrophotometer (Molecular Devices, San Jose, CA, USA). Each experiment was conducted in triplicate, with a minimum of three independent assays. The results were graphically presented as the percentage of cell viability versus chemical concentration, relative to the control.
(§4) Figure 2 Cytotoxicity of chalcones 1–7 using a resazurin reduction assay in HaCaT cells by comparison with the control. Bar graphs represent the mean ± SEM of at least three independent experiments performed in triplicate. Statistical analysis: one ANOVA with Dunnett’s multiple comparisons test, where p < 0.05 was considered significant when compared to the control condition. * p < 0.05, ** p < 0.01, and *** p < 0.0005.

Experiment in data set [2]: as above
It counts as cell-based, human. The conditions noted are these: human, HaCaT keratinocytes, resazurin, read-out: IC50 (cell viability, cytotoxicity). On the procedure: as §1, §2, §3, §4

Broadly, the IC50 is the concentration at which inhibition is half-maximal. In the case of `COc1cc(Br)cc(/C=C/C(=O)c2c(Br)c(Br)cc(OC)c2OC)c1OC` [Chalcone 4], the “concentration up to which acceptable levels of cytotoxicity were observed” value (“concentration up” for short) in the data set on RAW 264.7 macrophages was “up to 7.5 μM”. Besides, the IC50 in data set [1] was determined as 0.97 ± 0.22 µM. The “cytotoxicity / impact on keratinocyte viability” value with HaCaT keratinocytes is on record as “no significant impact”. Also, in data set [2], the 50% inhibitory concentration (IC50) at 24 h worked out at 11.7 ± 1.34 µM.

With `COc1cccc(/C=C/C(=O)c2c(Br)c(Br)cc(OC)c2OC)c1OC` [Chalcone 5], the “concentration up” value with RAW 264.7 macrophages is on record as “up to 1 μM”. In addition, in data set [1], the IC50 is 0.99 ± 0.54 µM. In addition, the “cytotoxicity / impact on keratinocyte viability” value with HaCaT keratinocytes is given as “no significant impact”. Also, the IC50 at 24 h in data set [2] worked out at 30.4 ± 2.66 µM.

For `COc1cccc(/C=C/C(=O)c2cccc(OC)c2OC)c1OC` [Chalcone 6], in the data set with RAW 264.7 macrophages, the “concentration up” value is reported as “up to 1 μM”. In addition, the IC50 in data set [1] worked out at 5.95 ± 1.49 µM. In the data set with HaCaT keratinocytes (at 2.5 μM), the “reduction in cellular viability” value is reported as roughly 25%. In addition, in data set [2], the IC50 at 24 h worked out at 14.7 ± 3.97 µM.
